Test results taken from patent US9199970B2, “4-[5-(pyridin-4-yl)-1H-1,2,4-triazol-3-yl]pyridine-2-carbonitrile crystalline polymorph and production method therefor” (FUJIYAKUHIN CO., LTD., priority 2012, dated 2015).
≈ marks a conversion by molar mass, not a printed value.

Test: Solubility test of various crystal forms (water solubility)
Format: physicochemical
Conditions: concentration of saturated solution determined through measuring absorbance (FIG. 8)
Protocol: Solubility Test of Various Crystal Forms
The water solubilities of type I crystals, type II crystals, and the hydrate of compound (1) were determined by calculating each sample concentration of its saturated solution determined through measuring absorbance.

Row | water solubility | Compound
1 | 1.9 µg/mL | N#Cc1cc(-c2n[nH]c(-c3ccncc3)n2)ccn1 [hydrate, 4-[5-(pyridin-4-yl)-1H-1,2,4-triazol-3-yl]pyridine-2-carbonitrile]
2 | 6.2 µg/mL (≈ 25 µM) | N#Cc1cc(-c2n[nH]c(-c3ccncc3)n2)ccn1 [type I crystals, 4-[5-(pyridin-4-yl)-1H-1,2,4-triazol-3-yl]pyridine-2-carbonitrile]
3 | 4.2 µg/mL (≈ 16.9 µM) | N#Cc1cc(-c2n[nH]c(-c3ccncc3)n2)ccn1 [type II crystals, 4-[5-(pyridin-4-yl)-1H-1,2,4-triazol-3-yl]pyridine-2-carbonitrile]
